Laboratory results from patent publication US9115101B2 (Genentech, Inc., priority 2012, dated 2015).

molecular target: T1, RORc ligand binding domain (Homo sapiens, UniProt P51449); assay: In Vitro RORc Ligand Binding Assay (25-[3H]hydroxycholesterol radioligand filtration); conditions: In Vitro RORc Ligand Binding Assay; Table 4; read-out: RORc IC50
T1 construct: host or cells: E. coli
T1 sequence (P51449 269-508 limits assumed): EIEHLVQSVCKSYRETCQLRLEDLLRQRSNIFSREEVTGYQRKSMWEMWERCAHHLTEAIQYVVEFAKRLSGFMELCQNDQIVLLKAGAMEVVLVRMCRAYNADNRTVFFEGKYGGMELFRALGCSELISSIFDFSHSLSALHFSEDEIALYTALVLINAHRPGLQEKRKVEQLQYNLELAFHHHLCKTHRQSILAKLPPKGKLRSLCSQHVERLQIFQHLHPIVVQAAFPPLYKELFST

Q: For CC(=O)N1CCN(c2ccc(CN3CCCC(c4ccccc4)S3(=O)=O)c(F)c2)CC1 (single isomer, unassigned) [Example 1], which IC50 is on record?
A: 0.247 µM

Q: Which IC50 does the source give for CC(=O)N1CCN(c2ccc(CN3CCCC(c4ccccc4)S3(=O)=O)c(F)c2)CC1 (single isomer, unassigned) [Example 2] here?
A: 0.157 µM

Q: How did the IC50 turn out when CS(=O)(=O)N1CCC(Oc2ccc(CN3CCCC(c4ccccc4)S3(=O)=O)c(F)c2)CC1 (single isomer, unassigned) [Example 3] was run?
A: 0.086 µM

Q: Which IC50 does the source give for CS(=O)(=O)N1CCC(Oc2ccc(CN3CCCC(c4ccccc4)S3(=O)=O)c(F)c2)CC1 (single isomer, unassigned) [Example 4] here?
A: 0.037 µM

Q: CC(=O)N1CCN(c2ccc(CN3CCCC(c4ccc(F)cc4)S3(=O)=O)c(F)c2)CC1 (single isomer, unassigned) [Example 11, 1-(4-{3-Fluoro-4-[6-(4-fluoro-phenyl)-1,1-dioxo-[1,2]thiazinan-2-ylmethyl]-phenyl}-piperazin-1-yl)-ethanone] was tested. Which IC50 did it give?
A: 0.125 µM

Q: For CC(=O)N1CCN(c2ccc(CN3CCCC(c4ccc(F)cc4)S3(=O)=O)c(F)c2)CC1 (single isomer, unassigned) [Example 12, 1-(4-{3-Fluoro-4-[6-(4-fluoro-phenyl)-1,1-dioxo-[1,2]thiazinan-2-ylmethyl]-phenyl}-piperazin-1-yl)-ethanone], which IC50 is on record?
A: 0.241 µM

Q: How did the IC50 turn out when CC(=O)N1CCN(c2ccc(CN3C(C)(C)CCC(c4ccccc4)S3(=O)=O)c(F)c2)CC1 (single isomer, unassigned) [Example 13, 1-{4-[4-(3,3-Dimethyl-1,1-dioxo-6-phenyl-[1,2]thiazinan-2-ylmethyl)-3-fluoro-phenyl]-piperazin-1-yl}-ethanone] was run?
A: 0.142 µM

Q: How did the IC50 turn out when CC(=O)N1CCN(c2ccc(CN3C(C)(C)CCC(c4ccccc4)S3(=O)=O)c(F)c2)CC1 (single isomer, unassigned) [Example 14, 1-{4-[4-(3,3-Dimethyl-1,1-dioxo-6-phenyl-[1,2]thiazinan-2-ylmethyl)-3-fluoro-phenyl]-piperazin-1-yl}-ethanone] was run?
A: 1.9 µM

Q: Which IC50 does the source give for CC(=O)N1CCN(c2ccc(CN3CCCCC(c4ccccc4)S3(=O)=O)c(F)c2)CC1 (single isomer, unassigned) [Example 15, 1-{4-[4-(1,1-Dioxo-7-phenyl-[1,2]thiazepan-2-ylmethyl)-3-fluoro-phenyl]-piperazin-1-yl}-ethanone] here?
A: 0.011 µM

Q: With CC(=O)N1CCN(c2ccc(CN3CCCCC(c4ccccc4)S3(=O)=O)c(F)c2)CC1 (single isomer, unassigned) [Example 16, 1-{4-[4-(1,1-Dioxo-7-phenyl-[1,2]thiazepan-2-ylmethyl)-3-fluoro-phenyl]-piperazin-1-yl}-ethanone] as the compound, how does the IC50 read?
A: 0.032 µM

Q: For CC(=O)N1CCN(c2ccc(CN3[C@@H](C)CCC(c4ccccc4)S3(=O)=O)c(F)c2)CC1 (single isomer, unassigned) [Example 17], which IC50 is on record?
A: 0.016 µM

Q: With CC(=O)N1CCN(c2ccc(CN3[C@@H](C)CCC(c4ccccc4)S3(=O)=O)c(F)c2)CC1 (single isomer, unassigned) [Example 18] as the compound, how does the IC50 read?
A: 0.047 µM

Q: With CC(=O)N1CCN(c2ccc(CN3[C@H](C)CCC(c4ccccc4)S3(=O)=O)c(F)c2)CC1 (single isomer, unassigned) [Example 19] as the compound, how does the IC50 read?
A: 2.8 µM

Q: Which IC50 does the source give for CC(=O)N1CCN(c2ccc(CN3[C@H](C)CCC(c4ccccc4)S3(=O)=O)c(F)c2)CC1 (single isomer, unassigned) [Example 20] here?
A: 0.026 µM

Q: Which IC50 does the source give for CC(=O)N1CCN(c2ccc(CN3CCOCC(c4ccccc4)S3(=O)=O)c(F)c2)CC1 (single isomer, unassigned) [Example 22, 1-{4-[4-(4,4-Dioxo-3-phenyl-[1,4,5]oxathiazepan-5-ylmethyl)-3-fluoro-phenyl]-piperazin-1-yl}-ethanone] here?
A: 0.751 µM

same assay, conditions: read-out: RORc IC50

Q: Which IC50 does the source give for C[C@H]1CCC(c2ccccc2)S(=O)(=O)N1Cc1ccc(N2CCn3c(cnc3C#N)C2)cc1F (some centres unmarked) here?
A: 0.182 µM

Q: With C[C@H]1CCC(c2ccccc2)S(=O)(=O)N1Cc1ccc(N2CCC(N3CCCC3=O)CC2)cc1F (some centres unmarked) as the compound, how does the IC50 read?
A: 0.878 µM
